NC(=O)c1ccccc1
solubility (mole fraction)
Settings	283.15 K	288.15 K	293.15 K	298.15 K	303.15 K	308.15 K	313.15 K	318.15 K	323.15 K
in ethanol	0.041	0.0478	0.0567	0.0652	0.0761	0.0859	0.102	0.122	0.142
in ethyl acetate	0.0217	0.024	0.0281	0.0325	0.0381	0.0453	0.0527	0.0618	0.0717
in methanol	0.061	0.0692	0.08	0.088	0.104	0.123	0.138	0.162	0.186
in n-propanol	0.0329	0.0399	0.0471	0.0552	0.0653	0.0754	0.0892	0.105	0.126

Source: BigSolDB 2.1
